Experimental findings from US12435065B2, “Crystalline forms of 1-(1,2-dimethylpropyl)-N-ethyl-5-methyl-N-pyridazin-4-yl-pyrazole-4-carboxamide” (BASF SE, priority 2019, dated 2025) are described below.

The nature of data set [1]: Suspension of form A and form B in water, solid analysed by PXRD (phase stability). It is filed as physicochemical. The procedure:
(§1) Laboratory PXRD patterns were recorded with a PANalytical X'Pert Pro X-ray diffractometer using Cu Kα radiation in reflection geometry (Bragg-Brentano). The sample is placed in a silicon single crystal sample holder of 0.2 mm depth and gently and precisely flattened. The tube voltage is 45 kV and current is 40 mA. The PXRD data are collected at room temperature in the range from 2θ=3.0°-40.0° with increments of 0.017° and measurement time of 20 to 200 s/step.
In a glass tube equipped with a stirring bar 50 mg of form A and 50 mg of form B were suspended in 1 mL water and stirred for 5 days at room temperature. The resulting solid was removed from the mother liquor and analyzed by PXRD.

Data set [2] in a line: Milling of crystalline form B, analysed by PXRD (stability during grinding). It is filed as physicochemical. The settings on record: 100 mg milled for 5 minutes with mortar and pestle. The procedure:
as §1
100 mg of crystalline form B obtained by the protocol of example 1 was milled for 5 minutes using mortar and pestel. The crystalline mass was analyzed by powder X-ray diffractometry.

As for `CCN(C(=O)c1cnn(C(C)C(C)C)c1C)c1ccnnc1` (stereo not drawn) [form A, 1-(1,2-dimethylpropyl)-N-ethyl-5-methyl-N-pyridazin-4-yl-pyrazole-4-carboxamide], in data set [1] (50 mg form A and 50 mg form B suspended in 1 mL water, stirred 5 days at room temperature), the “Crystal form of the solid after stirring in water (PXRD)” value is “complied with the data of crystalline form B”.

Take `CCN(C(=O)c1cnn(C(C)C(C)C)c1C)c1ccnnc1` (stereo not drawn) [form B, 1-(1,2-dimethylpropyl)-N-ethyl-5-methyl-N-pyridazin-4-yl-pyrazole-4-carboxamide]: the “Thermodynamic stability relative to crystalline form A” value in data set [1] (at least at room temperature) is reported as “thermodynamically more stable than the crystalline form A”. Moreover, the “Crystal form after milling (PXRD)” value in data set [2] is listed as “form B was identified”.
